Measurements as given in patent US20250345446A1 (Draupnir Bio ApS, priority 2022, published 2025).
Like-named read-outs stand apart in the source and are kept apart here. Residues, ends and D or L forms follow the SMILES beside them. *: point of attachment. Biotin = O=C1N[C@H]2[C@H](CS[C@H]2CCCCC(=O)*)N1

Legend:
HEK293/sortilin cells [1] = assay: Remaining TNFalpha in conditioned media (ELISA); type: cell-based; details: after 72 h, 20 nM TNFalpha; added TNFalpha (100%) subtracted remaining TNFalpha (%)
Procedure: In different experiments, HEK293/sortilin cells were incubated with compound gradient series and 20 nM TNFalpha for up to 72 h. Following incubation, remaining TNFalpha in conditioned media was evaluated using human TNF-alpha Quantikine ELISA Kit (R&D systems, DTA00D).

[2] = target: T1, soluble ectodomain of sortilin-6his (Homo sapiens, UniProt Q99523, V650M); assay: MST binding to soluble ectodomain of sortilin-6his
T1 construct: the soluble ectodomain of sortilin-6his is measured by microscale thermophoresis (MST)
T1 sequence (Q99523 with tags, fused parts or gaps V650M): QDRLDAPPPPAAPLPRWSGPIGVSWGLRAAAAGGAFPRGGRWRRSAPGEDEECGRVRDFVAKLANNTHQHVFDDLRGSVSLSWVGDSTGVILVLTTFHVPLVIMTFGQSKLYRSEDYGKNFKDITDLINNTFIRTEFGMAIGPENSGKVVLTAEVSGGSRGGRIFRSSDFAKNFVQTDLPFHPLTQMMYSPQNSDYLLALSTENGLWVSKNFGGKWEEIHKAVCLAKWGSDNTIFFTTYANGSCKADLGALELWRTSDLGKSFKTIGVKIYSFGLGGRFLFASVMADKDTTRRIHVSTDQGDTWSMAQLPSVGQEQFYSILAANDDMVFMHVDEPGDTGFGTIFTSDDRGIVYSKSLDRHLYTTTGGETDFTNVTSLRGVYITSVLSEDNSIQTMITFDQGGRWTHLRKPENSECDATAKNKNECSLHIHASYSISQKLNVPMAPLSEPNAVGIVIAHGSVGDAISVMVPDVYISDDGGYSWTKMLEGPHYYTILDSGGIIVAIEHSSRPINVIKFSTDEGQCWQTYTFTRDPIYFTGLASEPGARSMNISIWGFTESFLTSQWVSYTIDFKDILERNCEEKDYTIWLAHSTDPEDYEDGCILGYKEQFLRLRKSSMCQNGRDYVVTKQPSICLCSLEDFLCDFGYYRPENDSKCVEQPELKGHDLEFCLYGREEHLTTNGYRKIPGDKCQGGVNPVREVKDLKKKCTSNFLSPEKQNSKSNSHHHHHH

HEK293/sortilin cells [3] = assay: Lysosomal sorting and degradation of NA650 (microscopy, blotted lysates, leupeptin); type: cell-based; details: 2 h incubation, bifunctional molecule 300 nM, NA650 100 nM, anti-LAMP1 staining
Procedure: Cellular uptake of target NA650 was analyzed with fluorescence microscopy. For this assay, coverslips in 4 well plates were coated with poly-L lysine prior to seeding of HEK293/sortilin cells (25K cells/coverslip) in culture media (as described in Example 3)) and incubated overnight in cell incubator (37° C., humidified, 5% CO2). The culture media was replaced with assay media (as described in Example 3) containing NA650 (Invitrogen) (500 nM) (Thermo Fischer), a compound according to SEQ ID NO.: 147 (2 μM) and AF38469 (100 μM, MedChemExpress). The cells were incubated in a cell incubator for 4 hours before washing in dPBS (Bionordika) followed by fixation with dPBS+4% PFA (Sigma Aldrich) for 15 minutes. […] The fluorescent signal was analyzed using a laser scanning confocal microscope (LSM-800). […]
Culture medium was replaced with assay medium (DMEM (Lonza), 10% fetal bovine serum (Sigma Aldrich), 1% penicillin-streptomycin (Sigma Aldrich), 1% GlutaMAX (Gibco)) with or without NA650 (Invitrogen) (100 nM) (Thermo Fischer), peptidic bifunctional compound (300 nM) and leupeptin (80 μM) (Sigma Aldrich). […] Proteins were blotted onto a nitrocellulose membrane (Thermo Fisher), and the DyLight650 signal was detected using an iBright 1500 (Thermo Fisher). […]

HEK293/sortilin cells [4] = assay: Depletion of NA650 from cell culture supernatant; type: cell-based; details: for reduction in NA650 signal in cell culture supernatant: single addition, NA650 100 nM
Procedure: HEK293/sortilin cells were cultured in culture media containing DMEM (Lonza) further supplemented with 10% fetal bovine serum (Sigma), 1% GlutaMax Supplement (Gibco), penicillin-streptomycin (Thermo Fischer) and selection antibiotics 100 μg/mL Zeocin (Invitrogen). 35k cells/well were seeded in poly-L-lysine coated 96-well plates (Perkin Elmer) and allowed to incubate for 16-24 h in cell incubator (37° C., humidified, 5% CO2). Culture media were discarded, and the cells were washed with assay medium containing FluoroBright DMEM (Gibco) supplemented with 10% fetal bovine serum (Sigma) and 1% GlutaMax Supplement (Gibco). The media were discarded and replaced with assay media or assay medium containing 100 nM NA650 (Invitrogen). For wells evaluating the bifunctional compounds, the assay medium also contained concentrations ranging from 20 nM to 5 μM. After an incubation period of up to 72 h in the cell incubator the media were harvested and the presence of NA650 were evaluated by fluorescence intensity (FI) measurements of DyLight650 using a fluorescence plate reader (BMG Labtech Clariostar).
HEK293/sortilin cells (35k cells/96-well) were seeded in culture media (as described in Example 3) and incubated for 24 h in cell incubator. Culture media were discarded, and the cells were washed with assay medium containing FluoroBright DMEM (Gibco) and supplements as described in Example 3, before incubation in assay medium containing 100 nM NA650 and small molecule bifunctional compounds (20 nM to 5 μM). After an incubation period of up to 72 h, the media were harvested and the presence of NA650 were evaluated by FI measurements of DyLight650 using a fluorescence plate reader (BMG Labtech Clariostar).

[5] = test system: HEK293 cells expressing full length sortilin receptor; assay: Cellular uptake of NA650 in HEK293/sortilin cells; type: cell-based; details: 3 h incubation, 9.8 nM to 10 μM, NA650 100 nM
Summary of the method: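 HEK293 cells stably expressing full-length sortilin, seeded overnight, were exposed for 3 h at 37° C. in DMEM/10% FBS to NA650 (100 nM) with peptidic bifunctional compounds (9.8 nM to 10 μM). After dPBS washes, cell-associated DyLight650 fluorescence was read on a plate reader.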

[6] = target: streptavidin, bifunctional compound and sortilin-6his (UniProt P22629+Q99523, V650M); assay: TR-FRET ternary complex formation streptavidin / bifunctional peptide / sortilin-6his; details: Table 2; […] incubation, HTRF ratio 665/620 nm
Procedure: In these experiments, the compounds of interest were titrated over 24-point in a 384-well TTP LVDS plate (SPT Labtech) to a final buffer composition of 50 mM Bis-Tris Propane pH 8, 50 mM NaCl, 0.05% Tween20, with or without 10% DMSO using a Mosquito LV pipetting robot (SPT Labtech).
The reaction was allowed to incubate for 2.5 hours at room temperature, at which point the HTRF signal ratio at 665/620 nm was determined using a plate reader (ClarioStar, BMG Labtech). All reactions were run in triplicates and data was represented as HTRF ratio as a function of bifunctional compound concentration.

[7] = target: Sortilin-6His (Homo sapiens (Human)) (UniProt Q99523); assay: MST on labelled sortilin-6his ectodomain; KD score: +++ <25 nM, ++ 25-250 nM, + 250-2500 nM, 0 >2500 nM
Sequence of Sortilin-6His (Homo sapiens (Human)) (Q99523 78-755 V650M limits assumed): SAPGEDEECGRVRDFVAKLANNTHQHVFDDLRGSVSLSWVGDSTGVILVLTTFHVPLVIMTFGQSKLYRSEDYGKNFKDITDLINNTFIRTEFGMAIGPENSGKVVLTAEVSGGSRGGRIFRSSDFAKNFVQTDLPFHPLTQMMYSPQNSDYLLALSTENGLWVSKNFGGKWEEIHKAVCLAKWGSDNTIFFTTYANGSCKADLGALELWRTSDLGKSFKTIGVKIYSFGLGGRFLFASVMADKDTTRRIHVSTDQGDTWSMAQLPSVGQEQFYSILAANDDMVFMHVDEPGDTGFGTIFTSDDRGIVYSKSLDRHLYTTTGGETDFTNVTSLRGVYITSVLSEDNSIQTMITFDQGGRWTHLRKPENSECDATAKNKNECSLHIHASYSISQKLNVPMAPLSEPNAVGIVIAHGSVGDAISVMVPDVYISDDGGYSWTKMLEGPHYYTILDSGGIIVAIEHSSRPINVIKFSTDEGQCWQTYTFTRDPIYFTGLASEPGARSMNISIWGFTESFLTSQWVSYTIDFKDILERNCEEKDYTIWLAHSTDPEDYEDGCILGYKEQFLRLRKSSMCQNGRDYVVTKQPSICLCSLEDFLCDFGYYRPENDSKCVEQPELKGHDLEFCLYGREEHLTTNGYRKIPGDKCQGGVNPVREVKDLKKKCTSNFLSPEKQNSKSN

[8] = test system: untransfected HEK239 cells; assay: Cellular uptake of target in untransfected HEK293 cells (Example 22); type: cell-based; details: HEK293 cells without sortilin, 3 h, 2 nM to 2 μM, corresponding targets
Source text: Cellular uptake of target was investigated in untransfected HEK239 cells and HEK293 cells expressing sortilin receptor in a methodology analogous to example 3.

[9] = test system: HEK293 cells expressing full length sortilin receptor; assay: Cellular uptake of AlexaFluor488-anti-DNP antibody; type: cell-based; details: Table 7; AlexaFluor488-anti-DNP antibody (100 nM), 3 h, DNP warhead compounds
Source text: In this example, the small molecule degraders consist of a sortilin binder linked to warhead DNP to target anti-DNP antibodies (BF001 to BF016)
Cellular uptake of AlexaFluor488-anti-DNP antibody (Thermo Fisher) was investigated in HEK293 cells expressing full length sortilin receptor in a methodology analogous to example 3.

Sortilin-6His [10] = target: T2, Sortilin-6His (Homo sapiens (Human), UniProt Q99523 78-755); assay: MST on labelled sortilin-6his ectodomain
T2 construct: In MST it was labelled non-covalently with RED-tris-NTA; also called soluble ectodomain of sortilin-6his; fluorescent sortilin-6his
T2 sequence (Q99523 78-755 V650M limits assumed): as above

Sortilin-6His [11] = target: T2, Sortilin-6His; assay: MST on labelled sortilin-6his ectodomain; KD score: ++ <100 nM, + 100-2000 nM
Sortilin-6His [12] = target: T2, Sortilin-6His; assay: MST, fluorescent sortilin-6his (100 nM), peptide titrated
Sortilin-6His [13] = target: T2, Sortilin-6His; assay: TR-FRET (HTRF) ternary complex streptavidin-d2 / biotin-peptide / sortilin-6His; AUC score: + <5000, ++ >5000

## C[C@@H]1CN(c2ncc(-c3ccc4c(n3)N(Cc3cccnc3C#N)C(C)(C)C4=O)cn2)CCN1C(=O)CNC(=O)CCCCCCCCCNC(=O)c1cccc(Oc2ccc(C(=O)N[C@@H](CCC(C)(C)C)C(=O)O)cn2)c1 [BF043, (2S)-2-[[6-[3-[[10-[[2-[(2R)-4-[5-[1-[(2-cyano-3-pyridyl)methyl]-2,2-dimethyl-3-oxo-pyrrolo[2,3-b]pyridin-6-yl]pyrimidin-2-yl]-2-methyl-piperazin-1-yl]-2-oxo-ethyl]amino]-10-oxo-decyl]carbamoyl]phenoxy]pyridine-3-carbonyl]amino]-5,5-dimethyl-hexanoic acid]
HEK293/sortilin cells [1]
  Maximum clearance rates of TNFalpha from conditioned media: 63.3%
[2]; Table 4, small molecule bifunctional compounds, MST, read-out: KD score, binding to sortilin (Kd)
  Kd: < 1 nM

## CC(C)C[C@H](NC(=O)[C@H](CC(C)C)NC(=O)[C@H](CCC(N)=O)NC(=O)[C@H](CCCNC(=N)N)NC(=O)CNC(=O)CNC(=O)[C@H](CO)NC(=O)CNC(=O)CNC(=O)CNC(=O)CNC(=O)[C@H](CO)NC(=O)CNC(=O)CNC(=O)CNC(=O)CNC(=O)[C@H](CO)NC(=O)CNC(=O)CNC(=O)CCCC[C@@H]1SC[C@@H]2NC(=O)N[C@@H]21)C(=O)O [SEQ ID NO.: 147] (Biotin-GGSGGGGSGGGGSGGRQLL-OH)
HEK293/sortilin cells [3]
  subcellular localization of internalized NA650 (fluorescence microscopy): co-localizes with lysosomal marker
HEK293/sortilin cells [4]; after 24 h
  reduction in NA650 signal in cell culture supernatant: 16%
HEK293/sortilin cells [4]; after 48 h
  reduction in NA650 signal in cell culture supernatant: 46%
HEK293/sortilin cells [4]; after 72 h
  reduction in NA650 signal in cell culture supernatant: 61%
HEK293/sortilin cells [4]; all timepoints (24, 48, 72 h)
  degrader concentration of highest uptake of target: 312 nM
[5]
  cell associated FI signal, response to concentration series (in words): bell-shaped response
[6]
  AUC score, TR-FRET measurements of ternary complex formation: ++ (AUC > 5000)
[2]; Table 1, biotin-linker-peptide bifunctional compounds, MST, read-out: KD score, binding to sortilin (Kd)
  Kd: 100 to 2000 nM

## H-LQLL-OH (as printed in Table 3 for SEQ ID NO.: 30) (peptide)
[7]
  KD: 25 to 250 nM

## CC(C)(C)CC[C@H](NC(=O)c1ccc(Oc2cccc3c(C(=O)NCCCNC(=O)CCOCCOCCOCCNc4ccc([N+](=O)[O-])cc4[N+](=O)[O-])cccc23)nc1)C(=O)O [BF005, (2S)-2-[[6-[5-[3-[3-[2-[2-[2-(2,4-dinitroanilino)ethoxy]ethoxy]ethoxy]propanoylamino]propylcarbamoyl]-1-naphthyl]oxy]pyridine-3-carbonyllamino]-5,5-dimethyl-hexanoic acid]
[8]
  cell associated FI response to increasing degrader concentration: No response
[2]
  Kd: 1 to 10 nM
[9]
  AUC score, target internalization: ++ (AUC > 10.000)

B1: Biotin-GGSGGGGSGGGGSGG-OH (peptide)
peptide: Biotin-GGSGGGGSGGGGSGG-OH
SMILES: O=C(O)CNC(=O)CNC(=O)[C@H](CO)NC(=O)CNC(=O)CNC(=O)CNC(=O)CNC(=O)[C@H](CO)NC(=O)CNC(=O)CNC(=O)CNC(=O)CNC(=O)[C@H](CO)NC(=O)CNC(=O)CNC(=O)CCCC[C@@H]1SC[C@@H]2NC(=O)N[C@@H]21
Sortilin-6His [10]
  binding result: no binding

B2: Biotin-GGSGGGGSGGGGSGGRQLL-OH (peptide)
peptide: Biotin-GGSGGGGSGGGGSGGRQLL-OH
SMILES: CC(C)C[C@H](NC(=O)[C@H](CC(C)C)NC(=O)[C@H](CCC(N)=O)NC(=O)[C@H](CCCNC(=N)N)NC(=O)CNC(=O)CNC(=O)[C@H](CO)NC(=O)CNC(=O)CNC(=O)CNC(=O)CNC(=O)[C@H](CO)NC(=O)CNC(=O)CNC(=O)CNC(=O)CNC(=O)[C@H](CO)NC(=O)CNC(=O)CNC(=O)CCCC[C@@H]1SC[C@@H]2NC(=O)N[C@@H]21)C(=O)O
notes: also called degrader
Sortilin-6His [11]
  KD: 100 to 2000 nM
Sortilin-6His [12]
  Kd: 703 nM
Sortilin-6His [13]
  AUC of TR-FRET (HTRF ratio vs compound concentration) for ternary complex formation: > 5000 auc
